What is called % Inhibition is the change of the read-out against control, counted positive when it falls.

One assay has as its system lice eggs. Description: Time course in vitro lice egg hatching assay. The assay is classed as in vivo, Pediculus humanus humanus. The following applies: for effect on egg hatching (in words): results not shown.
Assay [1] deals with Plutella xylostella eggs (Waite strain). The experiment in a line: Egg hatch of Plutella xylostella after dipping in inhibitor. The following applies: for % Inhibition of egg hatch relative to controls / Number hatched / Number unhatched: Example 13.
Experimental: The egg masses were then placed in a humid box at 25 degrees until egg hatch. Control eggs were exposed to absolute methanol as described above. At day 6 post laying the eggs were assessed from the different treatments and the percentage of egg hatch determined relative to the control as shown in Table 9.
Batches of Plutella eggs that were laid on either fine cloth or parafilm were dipped in a specific inhibitor solution for between 2-10 seconds, the excess solution was drained by blotting with dry tissue paper. The egg masses were then placed in a humid box at 25 degrees until egg hatch. Control eggs were exposed to absolute methanol as described above or not treated.
The egg masses were then placed in a humid box at 25 degrees until egg hatch. Control eggs were exposed to absolute ethanol as described above. On day 6 post laying the eggs were assessed from the different treatments and the percentage of egg hatch determined relative to the control.
Assay [2] deals with Helicoverpa armigera eggs (Tatura×Toowoomba strains). Description: Egg hatch of Helicoverpa armigera after exposure to inhibitor. The following applies: for % Inhibition of egg hatch relative to the control / Number hatched / Number unhatched: Example 15, day 6 post laying.
Experimental: Several hundred Helicoverpa armigera eggs (Tatura×Toowoomba strains) were collected, that had been laid on fine mesh cloth over a 24 hour period.
Batches of Helicoverpa eggs were exposed to a specific inhibitor solution for between 2-10 seconds the excess solution drained by blotting with dry tissue paper. The egg masses were then placed in a humid box at 25 degrees until egg hatch. Control eggs were exposed to absolute methanol as described above.
A further assay concerns B. ovis eggs. The experiment in a line: Egg hatching in Bovicola ovis. It is filed as in vivo. The following applies: 10 mM. The method, then: B. ovis eggs were collected from the wool of sheep that were infested with this parasite. The eggs were collected using forceps and with the aid of a dissecting microscope and placed in 24 well tissue culture plates in duplicate lots of 10 eggs per replicate. The eggs were then exposed to either methanol alone (control) or the test compounds for either 10 minutes or 1 minute before being removed from the wells and placed into individual glass vials containing a diet at the base of the tube. The tubes were placed in plastic containers containing a salt solution (to keep humidity constant at 68%) and the containers maintained at a temperature 32° C. The eggs were monitored for hatching over the following 12 days and % hatch inhibition determined in comparison to the controls.

Assay [3] concerns Plutella xylostella eggs (Waite strain). The experiment in a line: Reversal of ovicidal effect by FeSO4 on Plutella xylostella eggs. The assay is classed as in vivo. The method, then:
(§1) Within 24 hours of collection the following experimental design was chosen. Batches of eggs were exposed to 10 mM 6,69-dimethyl-2,29-dipyridyl for 2 seconds while additional batches of eggs were exposed to the solvent only (Methanol) for 2 seconds. All batches of eggs were allowed to air dry for 20 minutes at room temperature. The eggs were then given a 2 second exposure to FeSO4 at either 10, 5 or 1 mM, air dried and put in the incubator at 24° C. and allowed to hatch over the next 6 days. In addition, a positive control of 10 mM 6,69-dimethyl-2,29-dipyridyl was set up in which eggs were exposed to this compound for 2 seconds, air dried and placed in the incubator.
as §1, with “10 mM 5,59-dimethyl-2,29-dipyridyl for 2” for “10 mM 6,69-dimethyl-2,29-dipyridyl for 2”, “FeSO4 at 10, 5” for “FeSO4 at either 10, 5”, “put in an incubator at” for “put in the incubator at”, “of 10 mM, 5,59-dimethyl-2,29-dipyridyl was set” for “of 10 mM 6,69-dimethyl-2,29-dipyridyl was set”

The mark [4] stands for this setting: 10 mM followed by 2 second exposure to 1 mM FeSO4.
[5] abbreviates: 10 mM followed by 2 second exposure to 5 mM FeSO4.
[6] abbreviates: 10 mM followed by 2 second exposure to 10 mM FeSO4.
[7] abbreviates: 10 mM followed by 2 second exposure to MEOH.
Where [8] appears, read: 10 mM, 2 seconds, (+ve) control, no second exposure.

Take `c1ccc(-c2ccccn2)nc1` [2,29-dipyridyl]: the “inhibition of lice egg hatching (in words)” value with lice eggs (in vivo) is on record as “completely inhibited”. In addition, the “Ph (number of eggs partly hatched)” value in the assay on lice eggs (per replicate, […], concentration not given) came out at 0.
As for `c1ccc(-c2ccc3ccccc3n2)nc1` [2-(2-pyridinyl)quinoline], the “inhibition of egg hatching in Plutella xylostella (in words)” value in assay [1] (10 mM) was “able to inhibit egg hatching”.
For the molecule `Cc1ccnc(-c2cc(C)ccn2)c1` [4,4′-dimethyl-2,2′-dipyridyl], the “inhibition of egg hatching of Helicoverpa armigera (in words)” value in assay [2] (1 mM) and in assay [2] (10 mM) was “significant inhibition of egg hatching” throughout. For the same molecule, the results for the “% Inhibition of egg hatch relative to the control” value in assay [2] (1 mM) and in assay [2] (10 mM) were 66% and 84%, respectively. Also, the Number hatched is reported as 23 in assay [2] (1 mM); 8 in assay [2] (10 mM); 0 in assay [1] (eggs laid on cloth, 1 mM); 0 in assay [1] (eggs laid on cloth, 10 mM); 10 in assay [1] (eggs laid on parafilm, 1 mM); 0 in assay [1] (eggs laid on parafilm, 10 mM). The Number unhatched in assay [2] (1 mM) turned out to be 29; in assay [2] (10 mM), 43; in assay [1] (eggs laid on cloth, 1 mM), 30; in assay [1] (eggs laid on cloth, 10 mM) it was 36. Further, the “inhibition of egg hatching in Plutella xylostella (in words)” value in assay [1] (10 and 1 mM) is reported as “significantly inhibit egg hatching”. The “% Inhibition of egg hatch relative to controls” value in assay [1] (eggs laid on cloth, 1 mM) was found to be 100%; in assay [1] (eggs laid on cloth, 10 mM) it was 100%; in assay [1] (eggs laid on parafilm, 1 mM), 91%; in assay [1] (eggs laid on parafilm, 10 mM), 100%.
For the molecule `Cc1ccc(-c2ccc(C)cn2)nc1` [5,5′-dimethyl-2,2′-dipyridyl], the “inhibition of egg hatching (in words)” value with B. ovis eggs (10 or 1 minute exposure) is “completely inhibited”. Besides, the “% Inhibition” value was found to be 100% in the assay on B. ovis eggs (1 minute exposure); 100% in the assay with B. ovis eggs (10 minute exposure); 0% in assay [3] (setting [4]); 0% in assay [3] (setting [5]); 8% in assay [3] (setting [6]); 55% in assay [3] (setting [7]). Also, in assay [3] (setting [8]), the “% Inhibition” value is given as 100%. Besides, in assay [2] (10 mM), the “inhibition of egg hatching of Helicoverpa armigera (in words)” value is on record as “significant inhibition of egg hatching”. Moreover, in assay [2] (10 mM), the “% Inhibition of egg hatch relative to the control” value amounted to 100%. For the same molecule, the Number hatched in assay [2] (10 mM) came out at 0; in assay [1] (eggs laid on cloth, 1 mM), 5; in assay [1] (eggs laid on cloth, 10 mM), 0; in assay [1] (eggs laid on parafilm, 1 mM), 18; in assay [1] (eggs laid on parafilm, 10 mM), 0; in assay [3] (setting [4]), 39. Further, the Number hatched in assay [3] (setting [5]) came out at 25; in assay [3] (setting [6]), 23; in assay [3] (setting [7]), 16; in assay [3] (setting [8]) it was 0. Moreover, the Number unhatched in assay [2] (10 mM) was determined as 42; in assay [1] (eggs laid on cloth, 1 mM) it was 22; in assay [1] (eggs laid on cloth, 10 mM) it was 21; in assay [3] (setting [4]), 0; in assay [3] (setting [5]), 0; in assay [3] (setting [6]) it was 2. Moreover, the values for the Number unhatched in assay [3] (setting [7]) and in assay [3] (setting [8]) were 19 and 38, respectively. The “inhibition of egg hatching in Plutella xylostella (in words)” value in assay [1] (10 and 1 mM) is given as “significantly inhibit egg hatching”. Further, the “% Inhibition of egg hatch relative to controls” value in assay [1] (eggs laid on cloth, 1 mM) worked out at 78%; in assay [1] (eggs laid on cloth, 10 mM) it was 100%; in assay [1] (eggs laid on parafilm, 1 mM) it was 88%; in assay [1] (eggs laid on parafilm, 10 mM) it was 100%. Also, the “effect of added Fe (FeSO4) on the ovicidal effect (in words)” value in assay [3] (10 mM inhibitor, then FeSO4 10, 5 or 1 mM) was “able to reverse the effects”.
For the molecule `O=C(O)CN(CCN(CC(=O)O)CC(=O)O)CC(=O)O` [EDTA, reference compound], the “effect on egg hatching (in words)” value with lice eggs (100 mM) is “did not appear to have an effect on egg hatching”.
As for `O=C(O)CN(CCOCCOCCN(CC(=O)O)CC(=O)O)CC(=O)O` [EGTA, reference compound], in the assay on lice eggs (10 mM), the “effect on egg hatching (in words)” value is given as “did not appear to have an effect on egg hatching”.
Take `CC(C)C[C@H](CC(=O)O)C(=O)N[C@@H](Cc1c[nH]c2ccccc12)C(=O)N[C@@H](C)c1ccccc1` [GM 1489, reference compound]: the “% Inhibition of lice egg hatching (maximum over the time-course)” value in the assay on lice eggs (concentration not given) came out at 0%.

For the origin of these results see patent US8212038B2, “Methods and compositions for controlling ectoparasites” (HatchTech Pty Ltd., priority 2003, dated 2012).
